According to patent US6060604A, “Pharmaceutical compounds comprising polyamines substituted with electron-affinic groups” (priority 1996, dated 2000):
“And” between values parts separate entries of the source, which are not always exact repeats. Equal entries are not always repeated. Structures can show the parent of a compound that is named as a salt.

Tests used:
hypoxic CHO cells [1] = test: radiosensitizing potency on hypoxic CHO cells as a function of linker length (Table 3); type: cell-based, Chinese hamster; settings: 8 Gy; for Sensitization Ratio at 20% Cell Survival Level: vs metronidazole, by linker (spacer chain) length
Procedure: The experiment shown in Table 3 is a later experiment which was conducted to determine the effect of the spacer chain (i.e., A) length. CHO cells were plated and allowed to attach to petri dishes for 3 h, then the media was replaced with 5 ml of Hank's Balanced Salt Solution with or without drugs. To induce cell hypoxia, the dishes were placed in sealed aluminum chambers which were degassed by pumping, and then back filled with 95% N2 /5% CO2. After 4 cycles, when the cells were severely hypoxic, the chambers were exposed to an X-ray beam generated by a General Electric Maxitron 300 therapy machine operated at 250 kVp and 20 mA (HVL 20 mm Al filter; dose rate at 2 Gy/min). The cells were cultured for 7 days in a 37° C. incubator and the resulting cell colonies were stained and counted.

H. pylori [2] = test: modified bottle broth method, H. pylori growth inhibition; type: cell-based
H. pylori [3] = test: disk diffusion method, H. pylori growth inhibition; type: cell-based
mice [4] = test: later in vivo toxicity, oral, mice
[5] = system: MTG-B mammary adenocarcinoma tumors; test: in vivo radiosensitization of MTG-B mammary adenocarcinoma tumors in mice; parameters: species or system female C3H mice
Procedure: To determine whether the pronounced effects of DATM in tissue culture can be duplicated in solid tumors, in vivo studies were performed on mice bearing MTG-B mammary adenocarcinoma tumors. The tumors were grown subcutaneously in the right flank of 7-week old female C3H mice. When the tumor diameter reached 8 mm, 8-carbon DATM was administered to groups of mice either intraperitoneally or orally at 2 g/kg, and 2 or 4 h later the tumors were subjected to an X-ray dose of 22 Gy. Control mice bearing identical tumors were either left untreated or treated with radiation alone or drug alone. For irradiation, the mice were placed into lead holders with the tumor-bearing leg exposed. After treatment, the tumor diameters were measured daily by caliper and the time required for tumors to grow to twice their initial size was calculated as tumor doubling time (TDT), with the treatment day defined as Day 0 for all calculations and plots, The survival time for mice was also recorded in all treatment groups.
To evaluate radiosensitization at different radiation doses, additional experiments were carried out where mice receiving DATM (2 g/kg body weight, given orally) were exposed to different radiation doses (0, 12, 22, 32 Gy).
FIG. 10 compares the effectiveness of oral DATM (2 g/kg body weight) to that of a much smaller DATM dose (25 mg/kg body weight) injected directly into the tumor.

H. pylori [6] = test: agar dilution method, inhibition of H. pylori growth; type: cell-based, H. pylori strain ATCC43504
hypoxic CHO cells [7] = test: in vitro toxicity on hypoxic CHO cells, colony formation; type: cell-based, Chinese hamster; settings: 0.2 mM, 12 hours at 37° C.
Procedure: Subsequently, hypoxic CHO cells were incubated with 0.2 mM DATM or 10 mM metro for 12 hours at 37° C.

CHO cells [8] = test: thermo-radiosensitization of hypoxic CHO cells, colony forming assay (Table 4); type: cell-based, Chinese hamster; settings: 41° C.; for combined drug/mild hyperthermia effect on radiosensitivity: hypoxic CHO cells; for Do: 30 min
Procedure: To examine the thermo-radiosensitizing effects of compounds (8) and (10), hypoxic CHO cells were irradiated (with or without drugs) with radiation doses ranging from 0-30 Gy. After irradiation, the chambers were placed either in a 37° C. or in a 41° C. water bath for 30 min. Then cell survival was evaluated by the colony forming assay.

mice [9] = test: preliminary in vivo toxicity, intraperitoneal, mice
Procedure: In a preliminary in vivo study, two groups of mice were injected intraperitoneally with either 1 g/kg or 4 g/kg of DATM (formula 8).

[10] = system: Chinese hamster ovary (CHO) cells; test: in vitro radiosensitization of hypoxic CHO cells, colony formation (Table 1); type: cell-based; settings: drug dose 0.1 mM; for SFR (N2)(18 Gy), surviving fraction ratio: hypoxic
Procedure: Cells were plated and allowed to attach on glass petri dishes for 3 h, then the media was replaced with 5 ml of Hank's balanced salt solution (HBSS) with or without drugs. To induce cell hypoxia, the dishes were placed at room temperature into sealed aluminum chambers (8 dishes/chamber). […] This procedure was repeated 4 times with 5 min holding periods under positive gas pressure between evacuations. After 1 h, when the cells were severely hypoxic, the chambers were placed in 37° C. water bath for 1 hr. For oxic treatment groups, cells were placed in 37° C. incubators for 2 h with 5 ml of HBSS (±drugs). The chambers were placed on a rotating table and exposed to an X-ray beam generated by a General Electric Maxitron 300 therapy machine operated at 250 kVp and 20 mA (HVL 20 mm Al filter; dose rate at 2 Gy/min). After irradiation, cells were rinsed with HBSS, and covered with fresh media. Cells were cultured for 7 days in a 37° C. incubator. The resulting cell colonies were stained and counted.

hypoxic CHO cells [11] = test: radiosensitizing hypoxic CHO cells, drugs given 2 hours at 4° C.; type: cell-based, Chinese hamster
CHO cells [12] = test: radiosensitization potency on hypoxic CHO cells at 20% survival, single X ray dose 8 Gy (Table 2); type: cell-based, Chinese hamster; settings: for IC80: Cricetulus griseus, CHO, read-out: drug molarity required to reduce cell survival to 20% of the untreated control value; for times more potent than metronidazole: hypoxic, 20% survival; for times more potent than metronidazole / Sensitization Ratio at 20% Survival Level: 8 Gy; for Sensitization Ratio at 20% Survival Level: vs metronidazole
Procedure: Cells were plated and allowed to attach on glass petri dishes for 3 h, then the media was replaced with 5 ml of Hank's balanced salt solution (HBSS) with or without drugs. To induce cell hypoxia, the dishes were placed at room temperature into sealed aluminum chambers (8 dishes/chamber). The chambers were degassed by pumping, and then back-filled with 95% N2 and 5% CO2. This procedure was repeated 4 times with 5 min holding periods under positive gas pressure between evacuations. After 1 h, when the cells were severely hypoxic, the chambers were placed in 37° C. water bath for 1 hr. For oxic treatment groups, cells were placed in 37° C. incubators for 2 h with 5 ml of HBSS (±drugs). The chambers were placed on a rotating table and exposed to an X-ray beam generated by a General Electric Maxitron 300 therapy machine operated at 250 kVp and 20 mA (HVL 20 mm Al filter; dose rate at 2 Gy/min). After irradiation, cells were rinsed with HBSS, and covered with fresh media. Cells were cultured for 7 days in a 37° C. incubator. The resulting cell colonies were stained and counted.
In the experiment shown in Table 2 hypoxic CHO cells were irradiated with a single X ray dose of 8 Gy, with or without drugs.

solubility in water = type: physicochemical; settings: d-gluconic acid salt
Procedure: A solution of N, N, N', N'-tetra[2'-(2-methyl-5-nitro-1-imidazolyl)ethyl]-1,8-octanediamine free base was prepared by dissolving 0.5 g of N, N, N', N'-tetra[2'-(2-methyl-5-nitro-1-imidazolyl)ethyl]-1,8-octanediamine in 20 ml of CH2 Cl2. To this solution, 2 g of gluconic acid in 5 ml of water was added. To the resultant mixture, pure MeOH was added dropwise until the mixture became a homogeneous solution. To this, 50 ml of ether, followed by 200 ml of hexane were added to precipitate the solid. The reaction mixture was cooled to 4° C., and the precipitated salt was removed by filtration through a sintered glass funnel, washed with anhydrous ether and dried under vacuum.

[13] = as radiosensitizers; cited from earlier work
[14] = DATM (2 g/kg, i.p. or oral) + radiation 22 Gy

Cc1ncc([N+](=O)[O-])n1CCN(CCCCCN(CCn1c([N+](=O)[O-])cnc1C)CCn1c([N+](=O)[O-])cnc1C)CCn1c([N+](=O)[O-])cnc1C [5-carbon DATM, N, N, N', N'-tetra[2'-(2-methyl-5-nitro-1-imidazolyl)ethyl]-1,5-pentanediamine]
Sensitization Ratio at 20% Cell Survival Level (hypoxic CHO cells [1]): 80

Cc1ncc([N+](=O)[O-])n1CCN(CCCCCCCCN(CCn1c([N+](=O)[O-])cnc1C)CCn1c([N+](=O)[O-])cnc1C)CCn1c([N+](=O)[O-])cnc1C [8-carbon DATM, N, N, N', N'-tetra[2'(2-methyl-5-nitro-1-imidazolyl)ethyl]-1,8-octanediamine]
ratio of the two MIC (metronidazole/DATM) (H. pylori [2]): 132.63 | Sensitization Ratio at 20% Cell Survival Level (hypoxic CHO cells [1]): 510 | times more potent than metronidazole in killing H. pylori (H. pylori [3]): 22.1 times | times less toxic to mice than metronidazole (mice [4]; oral): at least 5 times | toxicity (mice [4]; oral doses as high as 20 g/kg): no toxicity was observed | sensitization effect of intratumor injection vs intraperitoneal ([5]; 25 mg/kg intratumor vs 2 g/kg i.p., 22 Gy): same sensitization effect as 2 g/kg given intraperitoneally | effectiveness of intratumor injection vs oral ([5]; 25 mg/kg intratumor vs 2 g/kg oral): much more effective than oral drug administration | life span of tumor-bearing mice ([5]; 2 g/kg orally, radiation doses 0, 12, 22, 32 Gy): pronounced increase in the life span of tumor-bearing mice at all radiation doses studied | tumor doubling time (TDT) ([5]; 8-carbon DATM alone): 4 days | survival time of mice ([5]; 8-carbon DATM alone, 2 g/kg, no radiation): 13 to 15 days | increase of survival time [5, 14]: 157-179% | survival time [5, 14]: 36 days and 39 days | effectiveness in delaying tumor growth relative to radiation alone ([5]; DATM + radiation): ~3 times | tumor doubling time (TDT) ([5]; DATM + radiation): 18 days | effectiveness of oral vs intraperitoneal ([5]; equal drug dose, 22 Gy): slightly less effective than an equal drug dose administered intraperitoneally | ratio of the MIC of metronidazole over that of DATM (H. pylori [6]): 35.37

Cc1ncc([N+](=O)[O-])n1CCN(CCCCN(CCn1c([N+](=O)[O-])cnc1C)CCn1c([N+](=O)[O-])cnc1C)CCn1c([N+](=O)[O-])cnc1C [Compound 8, N, N, N', N'-tetra [2'-(2-methyl-5-nitro-1-imidazolyl)ethyl]-1,4-butanediamine]
toxic effects on CHO cells (hypoxic CHO cells [7]): No toxic effects were noted | combined drug/mild hyperthermia effect on radiosensitivity (CHO cells [8]): hypoxic cells become even more radiosensitive (smaller D0) than fully oxic cells | Do (CHO cells [8]; drug dose 50 μM): 0.8 Gy | toxicity (mice [9]; 1 g/kg intraperitoneally, mice): No toxicity was observed | lethality (mice [9]; 4 g/kg intraperitoneally, mice): all mice of the 4 g/kg group died | toxicity compared to metro (mice [9]; same dosage): roughly comparable to that of metro for the same dosage | Do [10]: 2.5 Gy | Ratio of RT Dose For 0.04 SF [10]: 1.5 | SFR (N2)(18 Gy), surviving fraction ratio [10]: 9.0 | radiosensitizing effectiveness, 0.2 mM DATM vs 10 mM metro (hypoxic CHO cells [11]): equally effective | IC80 (CHO cells [12]): 200 µM | times more potent than metronidazole (CHO cells [12]): 50 times | Sensitization Ratio at 20% Survival Level (CHO cells [12]): 50

Cc1ncc([N+](=O)[O-])n1CCN(CCCCCN(CCn1c([N+](=O)[O-])cnc1C)CCn1c([N+](=O)[O-])cnc1C)CCn1c([N+](=O)[O-])cnc1C [Compound 10, N, N, N', N'-tetra[2'-(2-methyl-5-nitro-1-imidazolyl)ethyl]-1,5-pentanediamine]
combined drug/mild hyperthermia effect on radiosensitivity (CHO cells [8]): hypoxic cells become even more radiosensitive (smaller D0) than fully oxic cells | Do (CHO cells [8]; drug dose 10 μM): 0.6 Gy | Do [10]: 1.9 Gy | Ratio of RT Dose For 0.04 SF [10]: 1.5 | SFR (N2)(18 Gy), surviving fraction ratio [10]: 21.4 | IC80 (CHO cells [12]): 25 µM | times more potent than metronidazole (CHO cells [12]): 400 times | Sensitization Ratio at 20% Survival Level (CHO cells [12]): 400

Cc1ncc([N+](=O)[O-])n1CCN(CCCCCCCCN(CCn1c([N+](=O)[O-])cnc1C)CCn1c([N+](=O)[O-])cnc1C)CCn1c([N+](=O)[O-])cnc1C [Example 5, N, N, N', N'-tetra[2'-(2-methyl-5-nitro-1-imidazolyl)ethyl]-1,8-octanediamine gluconic acid salt]
solubility in water (solubility in water): highly soluble in water

Cc1ncc([N+](=O)[O-])n1CCN(CCCCN(CCn1c([N+](=O)[O-])cnc1C)CCn1c([N+](=O)[O-])cnc1C)CCn1c([N+](=O)[O-])cnc1C [Linker Length 4, N, N, N', N'-tetra [2'-(2-methyl-5-nitro-1-imidazolyl)ethyl]-1,4-butanediamine]
times more potent/effective than metronidazole (hypoxic CHO cells [1]): 50 times | Sensitization Ratio at 20% Cell Survival Level (hypoxic CHO cells [1]): 50

Cc1ncc([N+](=O)[O-])n1CCN(CCCCCCN(CCn1c([N+](=O)[O-])cnc1C)CCn1c([N+](=O)[O-])cnc1C)CCn1c([N+](=O)[O-])cnc1C [Linker Length 6]
Sensitization Ratio at 20% Cell Survival Level (hypoxic CHO cells [1]): 120

Cc1ncc([N+](=O)[O-])n1CCN(CCCCCCCN(CCn1c([N+](=O)[O-])cnc1C)CCn1c([N+](=O)[O-])cnc1C)CCn1c([N+](=O)[O-])cnc1C [Linker Length 7]
Sensitization Ratio at 20% Cell Survival Level (hypoxic CHO cells [1]): 220

COCC(O)Cn1ccnc1[N+](=O)[O-] (centres unmarked) [misonidazole]
toxicity at therapeutic levels [13]: highly toxic at therapeutic levels
